Results: US8686150B2 (Sanofi, priority 2011, dated 2014)

Target: T1, human full-length recombinant PKC βII (Homo sapiens, UniProt P05771)
T1 construct: Active human full-length recombinant PKC βII; purchased Invitrogen GmbH, Darmstadt, Germany
Experiment: Determination of PKC βII inhibition (Caliper mobility-shift kinase assay, Fluorescein-RFARKGSLRQKNV peptide substrate)
Format: biochemical
Conditions: example compounds at a final concentration of 1.14 μM (±0.15 μM)
In short: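 Compounds were tested at 1.14 μM final. Enzyme was activated by PS, DAG and CaCl2 in Hepes pH 7.4 with MgCl2, with substrate 3 μM and ATP 120 μM as pre-mix concentrations. After 60 min at 32 °C and an EDTA stop, Caliper separation gave fractional turnover, which was normalised to no-compound and no-enzyme controls.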

T1 sequence (P05771 1-673 isoform P05771-2): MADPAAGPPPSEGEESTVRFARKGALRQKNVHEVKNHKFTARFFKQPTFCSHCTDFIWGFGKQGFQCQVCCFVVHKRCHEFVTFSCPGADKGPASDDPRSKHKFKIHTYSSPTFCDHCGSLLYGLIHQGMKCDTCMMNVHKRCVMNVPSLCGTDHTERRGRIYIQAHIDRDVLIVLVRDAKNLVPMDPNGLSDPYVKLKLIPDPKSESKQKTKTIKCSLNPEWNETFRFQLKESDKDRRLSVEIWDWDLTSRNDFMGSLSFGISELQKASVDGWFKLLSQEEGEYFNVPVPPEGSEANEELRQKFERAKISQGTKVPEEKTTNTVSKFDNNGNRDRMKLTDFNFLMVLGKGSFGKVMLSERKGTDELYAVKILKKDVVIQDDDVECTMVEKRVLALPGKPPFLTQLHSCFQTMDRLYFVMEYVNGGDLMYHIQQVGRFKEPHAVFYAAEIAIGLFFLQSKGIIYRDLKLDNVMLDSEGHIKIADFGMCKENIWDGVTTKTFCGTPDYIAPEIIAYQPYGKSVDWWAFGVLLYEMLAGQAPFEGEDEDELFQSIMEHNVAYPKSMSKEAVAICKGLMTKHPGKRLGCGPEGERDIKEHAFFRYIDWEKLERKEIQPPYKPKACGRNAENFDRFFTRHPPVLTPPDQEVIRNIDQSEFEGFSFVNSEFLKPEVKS

Cc1n[nH]c2nc(-c3ccc(O)cc3)cc(C(=O)N3CCNC[C@@H]3C(C)C)c12 [Example 202, [6-(4-Hydroxy-phenyl)-3-methyl-1H-pyrazolo[3,4-b]pyridin-4-yl]-((S)-2-isopropyl-piperazin-1-yl)-methanone]
inhibition at 1.14 µM: 101%

Cc1n[nH]c2nc(-c3ccc(O)c(F)c3)cc(C(=O)NCC3CCC(=O)N3)c12 (centres unmarked) [Example 359, 6-(3-Fluoro-4-hydroxy-phenyl)-3-methyl-1H-pyrazolo[3,4-b]pyridine-4-carboxylic acid (5-oxo-pyrrolidin-2-ylmethyl)-amide]
inhibition at 1.14 µM: 36%

CCN1CCCN(C(=O)c2cc(-c3ccc(O)c(F)c3)nc3[nH]nc(C)c23)CC1 [Example 366, (4-Ethyl-[1,4]diazepan-1-yl)-[6-(3-fluoro-4-hydroxy-phenyl)-3-methyl-1H-pyrazolo[3,4-b]pyridin-4-yl]-methanone]
inhibition at 1.14 µM: 47%

CCCC1(N)CCN(C(=O)c2cc(-c3ccc(O)cc3)nc3[nH]nc(C)c23)CC1 [Example 46, (4-Amino-4-propyl-piperidin-1-yl)-[6-(4-hydroxy-phenyl)-3-methyl-1H-pyrazolo[3,4-b]pyridin-4-yl]-methanone]
inhibition at 1.14 µM: 76%

Cc1n[nH]c2nc(-c3ccc(O)cc3)cc(C(=O)N3CCNCC3c3ccc(Cl)cc3)c12 (centres unmarked) [Example 378, [2-(4-Chloro-phenyl)-piperazin-1-yl]-[6-(4-hydroxy-phenyl)-3-methyl-1H-pyrazolo[3,4-b]pyridin-4-yl]-methanone]
inhibition at 1.14 µM: 87%

Cc1n[nH]c2nc(-c3ccc(O)cc3)cc(C(=O)NC34CNCC3C4)c12 (stereo in doubt) [Example 205, 6-(4-Hydroxy-phenyl)-3-methyl-1H-pyrazolo[3,4-b]pyridine-4-carboxylic acid [(R)-3-azabicyclo[3.1.0]hexan-1-yl]-amide]
inhibition at 1.14 µM: 92%

CCC[C@H]1CN(C(=O)c2cc(-c3ccc(O)cc3F)nc3[nH]nc(C)c23)CCN1 [Example 422, [6-(2-Fluoro-4-hydroxy-phenyl)-3-methyl-1H-pyrazolo[3,4-b]pyridin-4-yl]-((S)-3-propyl-piperazin-1-yl)-methanone]
inhibition at 1.14 µM: 95%

COc1cccc(C(CN)NC(=O)c2cc(-c3ccc(O)cc3)nc3[nH]nc(C)c23)c1 (centres unmarked) [Example 51, 6-(4-Hydroxy-phenyl)-3-methyl-1H-pyrazolo[3,4-b]pyridine-4-carboxylic acid [2-amino-1-(3-methoxy-phenyl)-ethyl]-amide]
inhibition at 1.14 µM: 85%

COC[C@H]1CNCCN1C(=O)c1cc(-c2ccc(O)cc2)nc2[nH]nc(C)c12 [Example 21, [6-(4-Hydroxy-phenyl)-3-methyl-1H-pyrazolo[3,4-b]pyridin-4-yl]-((R)-2-methoxymethyl-piperazin-1-yl)-methanone]
inhibition at 1.14 µM: 121%

CCN1CCCN(C(=O)c2cc(-c3ccc(O)cc3)nc3[nH]nc(C)c23)CC1 [Example 281, (4-Ethyl-[1,4]diazepan-1-yl)-[6-(4-hydroxy-phenyl)-3-methyl-1H-pyrazolo[3,4-b]pyridin-4-yl]-methanone]
inhibition at 1.14 µM: 85%

Cc1n[nH]c2nc(-c3ccc(O)cc3)cc(C(=O)N3CCNCC34CCCC4)c12 [Example 108, (6,9-Diaza-spiro[4.5]dec-6-yl)-[6-(4-hydroxy-phenyl)-3-methyl-1H-pyrazolo[3,4-b]pyridin-4-yl]-methanone]
inhibition at 1.14 µM: 96%

Cc1n[nH]c2nc(-c3ccc(O)cc3F)cc(C(=O)N3C[C@@H](c4ccccc4)NC[C@@H]3C)c12 (relative stereo) [Example 447, [6-(2-Fluoro-4-hydroxy-phenyl)-3-methyl-1H-pyrazolo[3,4-b]pyridin-4-yl]-(trans-2-methyl-5-phenyl-piperazin-1-yl)-methanone]
inhibition at 1.14 µM: 83%

CCc1n[nH]c2nc(-c3ccc(O)cc3)cc(C(=O)N3CCC4CNCC43)c12 (centres unmarked) [Example 167, [3-Ethyl-6-(4-hydroxy-phenyl)-1H-pyrazolo[3,4-b]pyridin-4-yl]-(hexahydro-pyrrolo[3,4-b]pyrrol-1-yl)-methanone]
inhibition at 1.14 µM: 58%

COC(=O)[C@H]1CNCCN1C(=O)c1cc(-c2ccc(O)c(F)c2)nc2[nH]nc(C)c12 [Example 328, (R)-1-[6-(3-Fluoro-4-hydroxy-phenyl)-3-methyl-1H-pyrazolo[3,4-b]pyridine-4-carbonyl]-piperazine-2-carboxylic acid methyl ester]
inhibition at 1.14 µM: 80%

CNCCCNC(=O)c1cc(-c2ccc(O)cc2)nc2[nH]nc(C)c12 [Example 244, 6-(4-Hydroxy-phenyl)-3-methyl-1H-pyrazolo[3,4-b]pyridine-4-carboxylic acid (3-methylamino-propyl)-amide]
inhibition at 1.14 µM: 76%

CCc1n[nH]c2nc(-c3ccc(O)cc3)cc(C(=O)NCC3CCC(=O)N3)c12 (centres unmarked) [Example 186, 3-Ethyl-6-(4-hydroxy-phenyl)-1H-pyrazolo[3,4-b]pyridine-4-carboxylic acid (5-oxo-pyrrolidin-2-ylmethyl)-amide]
inhibition at 1.14 µM: 33%

Cc1n[nH]c2nc(-c3ccc(O)c(F)c3)cc(C(=O)N3CCC(N)C3)c12 (centres unmarked) [Example 336, (3-Amino-pyrrolidin-1-yl)-[6-(3-fluoro-4-hydroxy-phenyl)-3-methyl-1H-pyrazolo[3,4-b]pyridin-4-yl]-methanone]
inhibition at 1.14 µM: 73%

COc1ccccc1C1CNCCN1C(=O)c1cc(-c2ccc(O)cc2)nc2[nH]nc(C)c12 (centres unmarked) [Example 79, [6-(4-Hydroxy-phenyl)-3-methyl-1H-pyrazolo[3,4-b]pyridin-4-yl]-[2-(2-methoxy-phenyl)-piperazin-1-yl]-methanone]
inhibition at 1.14 µM: 82%

Cc1n[nH]c2nc(-c3ccc(O)c(F)c3)cc(C(=O)N3CC[C@@H](C4(N)CC4)C3)c12 [Example 322, [(R)-3-(1-Amino-cyclopropyl)-pyrrolidin-1-yl]-[6-(3-fluoro-4-hydroxy-phenyl)-3-methyl-1H-pyrazolo[3,4-b]pyridin-4-yl]-methanone]
inhibition at 1.14 µM: 68%

Cc1n[nH]c2nc(-c3ccc(O)cc3)cc(C(=O)N3CC[C@H](N(C)C)C3)c12 [Example 239, ((S)-3-Dimethylamino-pyrrolidin-1-yl)-[6-(4-hydroxy-phenyl)-3-methyl-1H-pyrazolo[3,4-b]pyridin-4-yl]-methanone]
inhibition at 1.14 µM: 78%

CCN1CC2CC1CN2C(=O)c1cc(-c2ccc(O)cc2)nc2[nH]nc(C)c12 (centres unmarked) [Example 268, (5-Ethyl-2,5-diaza-bicyclo[2.2.1]hept-2-yl)-[6-(4-hydroxy-phenyl)-3-methyl-1H-pyrazolo[3,4-b]pyridin-4-yl]-methanone]
inhibition at 1.14 µM: 80%

Cc1n[nH]c2nc(-c3ccc(O)cc3)cc(C(=O)NCCN3CCC(c4ccccc4)CC3)c12 [Example 390, 6-(4-Hydroxy-phenyl)-3-methyl-1H-pyrazolo[3,4-b]pyridine-4-carboxylic acid [2-(4-phenyl-piperidin-1-yl)-ethyl]-amide]
inhibition at 1.14 µM: 67%

Cc1n[nH]c2nc(-c3ccc(O)cc3)cc(C(=O)NC3CC4CC3CN4)c12 (centres unmarked) [Example 193, 6-(4-Hydroxy-phenyl)-3-methyl-1H-pyrazolo[3,4-b]pyridine-4-carboxylic acid (2-aza-bicyclo[2.2.1]hept-5-yl)-amide]
inhibition at 1.14 µM: 94%

Cc1n[nH]c2nc(-c3ccc(O)cc3)cc(C(=O)N3CCNC[C@@H]3C)c12 [Example 188, [6-(4-Hydroxy-phenyl)-3-methyl-1H-pyrazolo[3,4-b]pyridin-4-yl]-((S)-2-methyl-piperazin-1-yl)-methanone]
inhibition at 1.14 µM: 105%

Cc1n[nH]c2nc(-c3ccc(O)cc3)cc(C(=O)N3CCC4(CC3)CNC4)c12 [Example 255, (2,7-Diaza-spiro[3.5]non-7-yl)-[6-(4-hydroxy-phenyl)-3-methyl-1H-pyrazolo[3,4-b]pyridin-4-yl]-methanone]
inhibition at 1.14 µM: 90%

Cc1ccc([C@@H]2CNC[C@H]2NC(=O)c2cc(-c3ccc(O)cc3)nc3[nH]nc(C)c23)cc1 (relative stereo) [Example 119, 6-(4-Hydroxy-phenyl)-3-methyl-1H-pyrazolo[3,4-b]pyridine-4-carboxylic acid (trans-4-p-tolyl-pyrrolidin-3-yl)-amide]
inhibition at 1.14 µM: 91%

CCC1(NC(=O)c2cc(-c3ccc(O)cc3)nc3[nH]nc(C)c23)CCCNC1 (centres unmarked) [Example 115, 6-(4-Hydroxy-phenyl)-3-methyl-1H-pyrazolo[3,4-b]pyridine-4-carboxylic acid (3-ethyl-piperidin-3-yl)-amide]
inhibition at 1.14 µM: 83%

Cc1n[nH]c2nc(-c3ccc(O)cc3)cc(C(=O)N3CCNCC3c3ccccc3C(F)(F)F)c12 (centres unmarked) [Example 93, [6-(4-Hydroxy-phenyl)-3-methyl-1H-pyrazolo[3,4-b]pyridin-4-yl]-[2-(2-trifluoromethyl-phenyl)-piperazin-1-yl]-methanone]
inhibition at 1.14 µM: 79%

Cc1n[nH]c2nc(-c3ccc(O)cc3)cc(C(=O)N3C[C@H](C)NC[C@@H]3C)c12 [Example 88, ((2S,5S)-2,5-Dimethyl-piperazin-1-yl)-[6-(4-hydroxy-phenyl)-3-methyl-1H-pyrazolo[3,4-b]pyridin-4-yl]-methanone]
inhibition at 1.14 µM: 101%

CCc1n[nH]c2nc(-c3ccc(O)cc3)cc(C(=O)N3CCCN(CC)CC3)c12 [Example 187, (4-Ethyl-[1,4]diazepan-1-yl)-[3-ethyl-6-(4-hydroxy-phenyl)-1H-pyrazolo[3,4-b]pyridin-4-yl]-methanone]
inhibition at 1.14 µM: 58%

Cc1cc(O)cc(C)c1-c1cc(C(=O)N2CCNCC2(C)C)c2c(C)n[nH]c2n1 [Example 156, (2,2-Dimethyl-piperazin-1-yl)-[6-(4-hydroxy-2,6-dimethyl-phenyl)-3-methyl-1H-pyrazolo[3,4-b]pyridin-4-yl]-methanone]
inhibition at 1.14 µM: 26%

CCc1n[nH]c2nc(-c3ccc(O)cc3)cc(C(=O)NC3CCCN(C)C3)c12 (centres unmarked) [Example 180, 3-Ethyl-6-(4-hydroxy-phenyl)-1H-pyrazolo[3,4-b]pyridine-4-carboxylic acid (1-methyl-piperidin-3-yl)-amide]
inhibition at 1.14 µM: 53%
